Reference: US20090306149A1, “USE OF BIARYLCARBOXAMIES IN THE TREATMENT OF HEDGEHOG PATHWAY-RELATED DISORDERS” (priority 2006, published 2009)
Read-outs that look alike come from different tables or passages of the source.

Experiments:
Smoothened = Smoothened (Homo sapiens, UniProt Q99835); assay: Smo binding assay, displacement of a small molecule agonist of Smoothened, filter binding format
Text: A Smo binding assay was developed using radio-labeled smoothened agonist for compound competition.
Table 1, infra; lists the IC50 for displacement of a small molecule agonist of Smoothened determined in a filter binding format.

[1] = test system: gli-luciferase activity (Hh pathway) in TMHh12 cells; assay: "IC50 shift" gli-luciferase reporter assay in TMHh12 cells with a small molecule Smo agonist; type: cell-based, mouse
Experimental: TM3 cells (mouse) transfected with a new proprietary reporter construct (pTA-8xGli-Luc). The pTA-8xGli-Luc reporter produces approx. 4 fold more luciferase activity than classical 8xGli-LUC. A highly responsive stable clone has been selected (TMHh12) with >10-fold signal/noise ratio and <10% CV in 384 well format.
“IC50 shift” assays in TMHh12 cells. IC50 for antagonism of gli-luciferase activity was tested in the presence of increasing concentrations of a small molecule agonist which binds to Smo with 1 nM affinity and activates the Hh pathway.
Table 1 lists the IC50 of antagonists determined in the presence of different (1 nM and 25 nM) concentrations of a small agonist of Smoothened.

[2] = Mus musculus, TMHh12, TMHh12 cells, 1 nM small molecule Smo agonist, read-out: Gli_luc (1 nM Smo agonist) IC50
[3] = Mus musculus, TMHh12, TMHh12 cells, 25 nM small molecule Smo agonist, read-out: Gli_luc (25 nM Smo agonist) IC50

Smoothened, sequence (Q99835 28-787): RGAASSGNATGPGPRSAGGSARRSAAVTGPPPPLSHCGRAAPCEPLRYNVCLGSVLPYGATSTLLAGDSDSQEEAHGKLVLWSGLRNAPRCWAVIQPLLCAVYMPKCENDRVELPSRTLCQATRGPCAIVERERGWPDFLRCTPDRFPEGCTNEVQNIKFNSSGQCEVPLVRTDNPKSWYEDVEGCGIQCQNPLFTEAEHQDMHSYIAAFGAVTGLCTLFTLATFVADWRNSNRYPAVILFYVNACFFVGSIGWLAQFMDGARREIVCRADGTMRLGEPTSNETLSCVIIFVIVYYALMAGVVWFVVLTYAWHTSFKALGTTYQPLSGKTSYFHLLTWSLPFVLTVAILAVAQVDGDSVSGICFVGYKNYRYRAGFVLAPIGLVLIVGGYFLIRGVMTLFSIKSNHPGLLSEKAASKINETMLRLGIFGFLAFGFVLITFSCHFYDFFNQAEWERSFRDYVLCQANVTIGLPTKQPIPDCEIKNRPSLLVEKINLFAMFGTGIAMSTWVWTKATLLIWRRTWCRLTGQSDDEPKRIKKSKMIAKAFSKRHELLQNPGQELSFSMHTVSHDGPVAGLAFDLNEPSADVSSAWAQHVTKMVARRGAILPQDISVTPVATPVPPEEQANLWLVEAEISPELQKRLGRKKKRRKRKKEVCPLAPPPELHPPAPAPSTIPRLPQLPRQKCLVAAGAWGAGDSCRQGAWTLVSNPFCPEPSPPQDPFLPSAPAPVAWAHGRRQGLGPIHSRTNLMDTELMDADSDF

Structure (SMILES)	IC50 (Smoothened)	IC50 [1, 2]	IC50 [1, 3]	IC50 ([1]; TMHh12 cells, 1 nM small molecule Smo agonist, read-out: Gli_luc (1 nM Smo agonist) IC50)	IC50 ([1]; TMHh12 cells, 25 nM small molecule Smo agonist, read-out: Gli_luc (25 nM Smo agonist) IC50)
Cc1cccc(C(=O)Nc2ccc3c(c2)C[C@@H](NCc2cccs2)C3)c1-c1ccc(C(F)(F)F)cc1 [Example 7]	14 nM	< 5 nM	141 nM	–	–
O=C(Nc1ccc2c(c1)CC(NCc1ccccc1)C2)c1ccccc1-c1ccc(C(F)(F)F)cc1 (stereo not drawn) [Example 56]	271 nM	165 nM	4180 nM	–	–
Cc1cccc(C(=O)Nc2ccc3c(c2)CC(NC(=O)c2ccccc2)C3)c1-c1ccc(C(F)(F)F)cc1 (stereo not drawn) [Example 76]	–	772 nM	1250 nM	–	–
Cc1cc(C)c(-c2ccc(C(F)(F)F)cc2)c(C(=O)Nc2ccc3c(c2)CC(NCc2ccsc2)C3)c1 (stereo not drawn) [Example 35]	208 nM	–	–	–	–
Cc1cccc(C(=O)Nc2ccc3c(c2)CC(NCc2ccccc2)C3)c1-c1ccc(C(F)(F)F)cc1 (stereo not drawn) [Example 55]	–	91 nM	995 nM	–	–
Cc1cccc(C(=O)Nc2ccc3c(c2)C[C@@H](NCc2cccnc2Cl)C3)c1-c1ccc(C(F)(F)F)cc1 [Example 30]	39 nM	136 nM	1440 nM	–	–
CCCNC1Cc2ccc(NC(=O)c3cccc(C)c3-c3ccc(C(F)(F)F)cc3)cc2C1 (stereo not drawn) [Example 58]	4300 nM	651 nM	10100 nM	–	–
Cc1cccc(C(=O)Nc2ccc3c(c2)CC(NCc2nccs2)C3)c1-c1ccc(C(F)(F)F)cc1 (stereo not drawn) [Example 72]	–	38 nM	667 nM	–	–
Cc1cccc(C(=O)Nc2ccc3c(c2)CC(NCc2ccc(-c4ccc(Cl)cc4)o2)C3)c1-c1ccc(C(F)(F)F)cc1 (stereo not drawn) [Example 64]	135 nM	48 nM	1310 nM	–	–
O=C(Nc1ccc2c(c1)CC(NCCc1ccccc1)C2)c1ccccc1-c1ccc(C(F)(F)F)cc1 (stereo not drawn) [Example 53]	7910 nM	261 nM	1800 nM	–	–
CCOC(=O)NC1CCc2ccc(NC(=O)c3cccc(C)c3-c3ccc(C(F)(F)F)cc3)cc2CC1 (stereo not drawn) [Example 84]	881 nM	700 nM	4480 nM	–	–
Cc1cccc(C(=O)Nc2ccc3c(c2)C[C@@H](NCc2ccc4c(c2)CCO4)C3)c1-c1ccc(C(F)(F)F)cc1 [Example 31]	28 nM	281 nM	3040 nM	–	–
O=C(Nc1ccc2c(c1)CC(NCc1ccccn1)C2)c1cccc(C(F)(F)F)c1-c1ccc(C(F)(F)F)cc1 (stereo not drawn) [Example 37]	–	2980 nM	11000 nM	–	–
O=C(Nc1ccc2c(c1)CC(NS(=O)(=O)NC1CCCCC1)C2)c1ccccc1-c1ccc(C(F)(F)F)cc1 (stereo not drawn) [Example 87]	–	2070 nM	2580 nM	–	–
O=C(Nc1ccc2c(c1)CCC(NS(=O)(=O)c1ccccc1F)CC2)c1ccccc1-c1ccc(C(F)(F)F)cc1 (stereo not drawn) [Example 104]	3520 nM	3560 nM	–	–	–
Cc1cccc(C(=O)Nc2ccc3c(c2)CC(NS(=O)(=O)c2cccs2)C3)c1-c1ccc(C(F)(F)F)cc1 (stereo not drawn) [Example 95]	–	1420 nM	–	–	–
COC(=O)N1CCC(CNC2Cc3ccc(NC(=O)c4cccc(C)c4-c4ccc(C(F)(F)F)cc4)cc3C2)CC1 (stereo not drawn) [Example 51]	13700 nM	7000 nM	11200 nM	–	–
Cc1cccc(C(=O)Nc2ccc3c(c2)C[C@@H](NCc2ccc4c(c2)OC(F)(F)O4)C3)c1-c1ccc(C(F)(F)F)cc1 [Example 25]	90 nM	409 nM	2500 nM	–	–
Cc1cccc(C(=O)Nc2ccc3c(c2)C[C@@H](NCc2ccncc2)C3)c1-c1ccc(C(F)(F)F)cc1 [Example 20]	151 nM	94 nM	964 nM	–	–
COC(=O)C1(CNC2Cc3ccc(NC(=O)c4ccccc4-c4ccc(C(F)(F)F)cc4)cc3C2)CCCC1 (stereo not drawn) [Example 42]	–	2580 nM	–	–	–
Cc1cccc(C(=O)Nc2ccc3c(c2)C[C@@H](NCc2ncc[nH]2)C3)c1-c1ccc(C(F)(F)F)cc1 [Example 17]	–	1370 nM	15500 nM	–	–
Cc1cccc(C(=O)Nc2ccc3c(c2)CC(NCc2nc4ccccc4n2C)C3)c1-c1ccc(C(F)(F)F)cc1 (stereo not drawn) [Example 57]	28 nM	3060 nM	17400 nM	–	–
CS(=O)(=O)NC1Cc2ccc(NC(=O)c3cccc(F)c3-c3ccc(C(F)(F)F)cc3)cc2C1 (stereo not drawn) [Example 92]	60 nM	1010 nM	1300 nM	–	–
Cc1cccc(C(=O)Nc2ccc3c(c2)C[C@@H](NCc2ccc(Cl)o2)C3)c1-c1ccc(C(F)(F)F)cc1 [Example 14]	1 nM	< 5 nM	37 nM	–	–
CCCCS(=O)(=O)NC1Cc2ccc(NC(=O)c3cccc(C)c3-c3ccc(C(F)(F)F)cc3)cc2C1 (stereo not drawn) [Example 86]	265 nM	–	–	–	–
Cc1cccc(C(=O)Nc2ccc3c(c2)C[C@@H](NCC2CCOC2)C3)c1-c1ccc(C(F)(F)F)cc1 (stereo partly drawn) [Example 33]	–	4530 nM	16400 nM	–	–
Cc1cccc(C(=O)Nc2ccc3c(c2)C[C@@H](Nc2ccccc2)C3)c1-c1ccc(C(F)(F)F)cc1 [Example 74, 6-Methyl-4′-trifluoromethyl-biphenyl-2-carboxylic acid ((S)-2-phenylamino-indan-5-yl)-amide]	47 nM	19 nM	557 nM	–	–

Structure (SMILES)	IC50 (Smoothened)	IC50 [1, 2]	IC50 [1, 3]	IC50 ([1]; TMHh12 cells, 1 nM small molecule Smo agonist, read-out: Gli_luc (1 nM Smo agonist) IC50)	IC50 ([1]; TMHh12 cells, 25 nM small molecule Smo agonist, read-out: Gli_luc (25 nM Smo agonist) IC50)
O=C(Nc1ccc2c(c1)CC(NS(=O)(=O)c1cccs1)C2)c1ccc(F)cc1-c1ccc(C(F)(F)F)cc1 (stereo not drawn) [Example 90]	–	5440 nM	–	–	–
Cc1cccc(C(=O)Nc2ccc3c(c2)CC(NS(=O)(=O)c2ccc(Cl)cc2)C3)c1-c1ccc(C(F)(F)F)cc1 (stereo not drawn) [Example 98]	–	324 nM	24400 nM	–	–
CCCS(=O)(=O)NC1Cc2ccc(NC(=O)c3cccc(C)c3-c3ccc(C(F)(F)F)cc3)cc2C1 (stereo not drawn) [Example 93]	–	3390 nM	–	–	–
O=C(COc1ccccc1)NC1Cc2ccc(NC(=O)c3ccccc3-c3ccc(C(F)(F)F)cc3)cc2C1 (stereo not drawn) [Example 78]	–	1890 nM	–	–	–
O=C(Nc1ccc2c(c1)CC(NS(=O)(=O)c1ccccc1)C2)c1ccccc1-c1ccc(Cl)cc1 (stereo not drawn) [Example 96]	–	1480 nM	–	–	–
O=C(Nc1ccc2c(c1)CC(NS(=O)(=O)c1cccs1)C2)c1c(F)cccc1-c1ccc(C(F)(F)F)cc1 (stereo not drawn) [Example 97]	–	1360 nM	–	–	–
CCOC(=O)NC1Cc2ccc(NC(=O)c3ccccc3-c3ccc(C(F)(F)F)cc3)cc2C1 (stereo not drawn) [Example 81]	–	1330 nM	–	–	–
Cc1cccc(C(=O)Nc2ccc3c(c2)C[C@H](NC(=O)c2ccno2)C3)c1-c1ccc(C(F)(F)F)cc1 [Example 80]	–	3270 nM	–	–	–
CCOC(=O)NC1Cc2ccc(NC(=O)c3cccc(OC)c3-c3ccc(C(F)(F)F)cc3)cc2C1 (stereo not drawn) [Example 83]	–	715 nM	9730 nM	–	–
O=C(Nc1ccc2c(c1)C[C@@H](NCc1ccccn1)C2)c1cccc(C(F)(F)F)c1-c1ccc(C(F)(F)F)cc1 [Example 46]	–	831 nM	3850 nM	–	–
Cc1nc(CN[C@H]2Cc3ccc(NC(=O)c4cccc(C)c4-c4ccc(C(F)(F)F)cc4)cc3C2)cs1 [Example 9]	–	39 nM	876 nM	–	–
Cc1cccc(C(=O)Nc2ccc3c(c2)C[C@H](NCc2ccccc2)C3)c1-c1ccc(C(F)(F)F)cc1 [Example 27]	–	12 nM	605 nM	–	–
O=C(Nc1ccc2c(c1)CCC2NCc1cccs1)c1ccccc1-c1ccc(C(F)(F)F)cc1 (stereo not drawn) [Example 39]	–	686 nM	3720 nM	–	–
O=C(Nc1ccc2c(c1)CC(NS(=O)(=O)c1ccc(F)cc1)C2)c1ccccc1-c1ccc(C(F)(F)F)cc1 (stereo not drawn) [Example 99]	–	1050 nM	–	–	–
Cc1cccc(C(=O)Nc2ccc3c(c2)C[C@@H](NCc2nccn2C)C3)c1-c1ccc(C(F)(F)F)cc1 [Example 18]	–	39 nM	876 nM	–	–
CN(C)CC(=O)NC1Cc2ccc(NC(=O)c3ccccc3-c3ccc(C(F)(F)F)cc3)cc2C1 (stereo not drawn) [Example 77]	–	1410 nM	12400 nM	–	–
Cc1cccc(C(=O)Nc2ccc3c(c2)CC(NS(=O)(=O)c2cccs2)C3)c1-c1ccc(F)cc1 (stereo not drawn) [Example 94]	–	6630 nM	–	–	–
COc1cccc(C(=O)Nc2ccc3c(c2)CC(NC(=O)c2ccccc2)C3)c1-c1ccc(C(F)(F)F)cc1 (stereo not drawn) [Example 79]	–	1330 nM	–	–	–
Cc1cccc(C(=O)Nc2ccc3c(c2)CC(NCc2cccs2)C3)c1-c1ccc(C(F)(F)F)cc1 (stereo not drawn) [Example 52]	–	40 nM	598 nM	–	–
Cc1cccc(C(=O)Nc2ccc3c(c2)CC(NS(=O)(=O)c2ccc(Cl)s2)C3)c1-c1ccc(C(F)(F)F)cc1 (stereo not drawn) [Example 85]	12 nM	–	–	–	–
O=C(Nc1ccc2c(c1)C[C@H](NS(=O)(=O)c1ccccc1)C2)c1ccccc1-c1ccc(C(F)(F)F)cc1 [Example 89]	–	202 nM	–	–	–
CCOC(=O)N[C@H]1Cc2ccc(NC(=O)c3cccc(C)c3-c3ccc(C(F)(F)F)cc3)cc2C1 [Example 82]	–	1510 nM	9030 nM	–	–
Cc1cccc(C(=O)Nc2ccc3c(c2)C[C@@H](NS(=O)(=O)c2ccccn2)C3)c1-c1ccc(C(F)(F)F)cc1 [Example 101]	–	904 nM	14100 nM	–	–
Cc1cccc(C(=O)Nc2ccc3c(c2)C[C@@H](NCc2cncn2C)C3)c1-c1ccc(C(F)(F)F)cc1 [Example 16]	–	592 nM	3700 nM	–	–
O=C(Nc1ccc2c(c1)CC(NCc1ccccn1)C2)c1cccc(C(F)(F)F)c1-c1ccc(C(F)(F)F)cc1 (stereo not drawn) [Example 47]	–	–	–	1570 nM	5960 nM
O=C(Nc1ccc2c(c1)CC(NS(=O)(=O)c1cccs1)C2)c1cccc(F)c1-c1ccc(C(F)(F)F)cc1 (stereo not drawn) [Example 91]	–	59 nM	16300 nM	–	–
